Laboratory results taken from PubChem BioAssay AID256 (DTP/NCI, 2004).
Several values for one entry are separate records, joined by “and”; a condition that tells them apart may be missing. Equal values may be shown once. Inconclusive results and toxic doses are left out. The calls were made as follows: active = survival T/C of 150% or more; inactive = T/C below 125% in these data.

Tested on: CD2F1 mice, L1210 leukemia ip, survival T/C
Test: NCI In Vivo Anticancer Drug Screen. Data for tumor model L1210 Leukemia (intraperitoneal) in CD2F1 (CDF1) mice
Conditions: endpoint: mean survival time, higher = longer survival
Outline: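 Read-out first: treated-group measurement over vehicle-control measurement, expressed as a ratio. Animals bore a transplanted tumor line and were dosed with compound or vehicle.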

[1] = dose: 100.0 mg/kg/injection, schedule: Q01DX009 (ip), vehicle: saline
[2] = dose: 200.0 mg/kg/injection, schedule: Q01DX009 (ip), vehicle: saline
[3] = dose: 400.0 mg/kg/injection, schedule: Q04DX003 (ip), vehicle: saline
[4] = dose: 100.0 mg/kg/injection, schedule: Q01DX001 (ip), vehicle: saline with Tween-80
[5] = dose: 200.0 mg/kg/injection, schedule: Q01DX001 (ip), vehicle: saline with Tween-80
[6] = dose: 100.0 mg/kg/injection, schedule: Q01DX009 (ip), vehicle: saline with Tween-80
[7] = dose: 200.0 mg/kg/injection, schedule: Q01DX009 (ip), vehicle: saline with Tween-80
[8] = dose: 50.0 mg/kg/injection, schedule: Q01DX001 (ip), vehicle: saline with Tween-80

Measured: T/C

CC1(COCCOCC2(C)CO2)CO1 (stereo unspecified)
inactive: [1] 111 % of control | [2] 114 % of control | dose: 264.0 mg/kg/injection, schedule: Q04DX003 (ip), vehicle: saline 116 % of control | [3] 113 % of control | dose: 600.0 mg/kg/injection, schedule: Q04DX003 (ip), vehicle: saline 121 % of control

CCOC(=O)Nc1cc(NCCCCc2ccccc2)c(N)c(N)n1
inactive: [4] 102 % of control | [5] 109 % of control

O=C(Nc1nccs1)Nc1cc([N+](=O)[O-])ccc1F
inactive: dose: 50.0 mg/kg/injection, schedule: Q01DX009 (ip), vehicle: Klucel (hydroxypropylcellulose) (HPC) 104 % of control | dose: 100.0 mg/kg/injection, schedule: Q01DX009 (ip), vehicle: Klucel (hydroxypropylcellulose) (HPC) 96 % of control | dose: 200.0 mg/kg/injection, schedule: Q01DX009 (ip), vehicle: Klucel (hydroxypropylcellulose) (HPC) 93 % of control

COc1ccc2c(OC)cccc2c1
inactive: dose: 100.0 mg/kg/injection, schedule: Q04DX003 (ip), vehicle: other 102 % of control | dose: 200.0 mg/kg/injection, schedule: Q04DX003 (ip), vehicle: other 112 % of control | dose: 400.0 mg/kg/injection, schedule: Q04DX003 (ip), vehicle: other 101 % of control

CC(=O)SCCNCC(C)(C)S
inactive: dose: 100.0 mg/kg/injection, schedule: Q04DX003 (ip), vehicle: saline 98 % of control | dose: 200.0 mg/kg/injection, schedule: Q04DX003 (ip), vehicle: saline 98 % of control | [3] 95 % of control

COC(=O)C(Cl)(Cl)N=Nc1c(Cl)cc(Cl)c(C)c1Cl
inactive: dose: 6.25 mg/kg/injection, schedule: Q01DX009 (ip), vehicle: saline with Tween-80 96 % of control | dose: 6.25 mg/kg/injection, schedule: Q01DX009 (ip), vehicle: saline 93 % of control | dose: 12.5 mg/kg/injection, schedule: Q01DX009 (ip), vehicle: saline with Tween-80 100 % of control | dose: 12.5 mg/kg/injection, schedule: Q01DX009 (ip), vehicle: saline 98 % of control | dose: 25.0 mg/kg/injection, schedule: Q01DX009 (ip), vehicle: saline with Tween-80 97 % of control | dose: 25.0 mg/kg/injection, schedule: Q01DX009 (ip), vehicle: saline 93 % of control | dose: 50.0 mg/kg/injection, schedule: Q01DX009 (ip), vehicle: saline with Tween-80 94 % of control | dose: 50.0 mg/kg/injection, schedule: Q01DX009 (ip), vehicle: saline 98 % of control | [6] 102 % of control | [1] 90 % of control | [7] 86 % of control | [2] 86 % of control

[N-]=[N+]=C1C(=O)NC(=O)N2C3CC(O)C(COC12)O3 (stereo unspecified)
inactive: dose: 75.0 mg/kg/injection, schedule: Q01DX009 (ip), vehicle: saline with Tween-80 106 % of control | dose: 100.0 mg/kg/injection, schedule: Q01DX009 (ip), vehicle: saline sonified 114 % of control | dose: 100.0 mg/kg/injection, schedule: Q04DX003 (ip), vehicle: saline with Tween-80 101 % of control | dose: 150.0 mg/kg/injection, schedule: Q01DX009 (ip), vehicle: saline with Tween-80 108 % of control | dose: 200.0 mg/kg/injection, schedule: Q01DX009 (ip), vehicle: saline sonified 120 % of control | dose: 200.0 mg/kg/injection, schedule: Q04DX003 (ip), vehicle: saline with Tween-80 104 % of control | dose: 300.0 mg/kg/injection, schedule: Q01DX009 (ip), vehicle: saline with Tween-80 112 % of control | dose: 400.0 mg/kg/injection, schedule: Q01DX009 (ip), vehicle: saline sonified 121 % of control | dose: 400.0 mg/kg/injection, schedule: Q04DX003 (ip), vehicle: saline with Tween-80 108 % of control

COC(=O)N(C)c1nc(-c2ccccc2)nc2nonc12
inactive: dose: 12.5 mg/kg/injection, schedule: Q01DX005 (ip), vehicle: saline with Tween-80 100 % of control | dose: 25.0 mg/kg/injection, schedule: Q01DX005 (ip), vehicle: saline with Tween-80 96 % of control | dose: 50.0 mg/kg/injection, schedule: Q01DX005 (ip), vehicle: saline with Tween-80 94 % of control | dose: 100.0 mg/kg/injection, schedule: Q01DX005 (ip), vehicle: saline with Tween-80 90 % of control

O=CNc1ccc([N+](=O)[O-])cc1
inactive: [6] 101 % of control | [7] 94 % of control | dose: 400.0 mg/kg/injection, schedule: Q01DX009 (ip), vehicle: saline with Tween-80 91 % of control

Cn1c(=O)ccc2ccccc21
inactive: dose: 100.0 mg/kg/injection, schedule: Q04DX002 (ip), vehicle: saline with Tween-80 101 % of control | dose: 200.0 mg/kg/injection, schedule: Q04DX002 (ip), vehicle: saline with Tween-80 87 % of control

COc1cc(OC)c(/C=C/c2cc3c4ccccc4ccc3[n+](C)c2)c(OC)c1
inactive: dose: 12.5 mg/kg/injection, schedule: Q01DX001 (ip), vehicle: saline with Tween-80 104 % of control | dose: 25.0 mg/kg/injection, schedule: Q01DX001 (ip), vehicle: saline with Tween-80 112 % of control | [8] 101 % of control | [4] 94 % of control

O=C1C=C(N2C3C4CCC(C4)C32)C(=O)C=C1c1ccccc1 (stereo unspecified)
inactive: [8] 96 % of control and 98 % of control and 108 % of control | [4] 121 % of control and 94 % of control and 96 % of control | [5] 115 % of control and 97 % of control and 102 % of control | dose: 400.0 mg/kg/injection, schedule: Q01DX001 (ip), vehicle: saline with Tween-80 102 % of control

c1ccc(-c2cc3ccccc3c(-c3ccccc3)c2-c2ccccc2)cc1
inactive: dose: 150.0 mg/kg/injection, schedule: Q01DX001 (ip), vehicle: other 90 % of control | dose: 300.0 mg/kg/injection, schedule: Q01DX001 (ip), vehicle: other 88 % of control
